Data taken from ChEMBL document CHEMBL3727356, “Therapeutic compounds and compositions” (2014).

Experiments:
[1] = target: Pyruvate kinase PKLR (Homo sapiens, UniProt P30613, R510Q); experiment: Activation of PKR R510Q mutant (unknown origin) incubated for 60 mins in presence of ADP, PEP and NADH by Spectraax microplate reader based assay
[2] = target: Pyruvate kinase PKLR (Homo sapiens, UniProt P30613, R532W); experiment: Activation of PKR R532W mutant (unknown origin) incubated for 60 mins in presence of ADP, PEP and NADH by Spectraax microplate reader based assay
[3] = target: T1, Pyruvate kinase PKLR (Homo sapiens, UniProt P30613); experiment: Activation of wild type PKR (unknown origin) by cell based assay
[4] = target: T1, Pyruvate kinase PKLR; experiment: Activation of wild type PKR (unknown origin) incubated for 60 mins in presence of ADP, PEP and NADH by Spectraax microplate reader based assay

Chain of Pyruvate kinase PKLR (Homo sapiens, UniProt P30613, R510Q) (P30613 whole entry R510Q): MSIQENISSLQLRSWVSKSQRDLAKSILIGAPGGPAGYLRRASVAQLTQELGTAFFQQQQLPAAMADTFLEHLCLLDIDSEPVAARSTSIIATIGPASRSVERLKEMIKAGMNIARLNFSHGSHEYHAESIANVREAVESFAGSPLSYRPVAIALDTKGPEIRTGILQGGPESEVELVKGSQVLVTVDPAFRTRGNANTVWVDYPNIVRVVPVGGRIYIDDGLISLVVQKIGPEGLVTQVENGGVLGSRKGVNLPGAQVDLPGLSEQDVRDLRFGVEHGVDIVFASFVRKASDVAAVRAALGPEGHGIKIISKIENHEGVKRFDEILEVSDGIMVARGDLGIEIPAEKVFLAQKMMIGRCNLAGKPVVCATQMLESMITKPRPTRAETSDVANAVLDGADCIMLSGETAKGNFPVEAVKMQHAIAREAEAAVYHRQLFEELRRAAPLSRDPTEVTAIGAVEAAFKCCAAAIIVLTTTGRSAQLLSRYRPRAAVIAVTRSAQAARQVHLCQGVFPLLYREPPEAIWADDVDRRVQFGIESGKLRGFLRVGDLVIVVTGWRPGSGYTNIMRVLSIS
T1 sequence (P30613 whole entry): as the sequence (P30613 whole entry R510Q) above, with Q510R counted along it
Chain of Pyruvate kinase PKLR (Homo sapiens, UniProt P30613, R532W) (P30613 whole entry R532W): as the sequence (P30613 whole entry R510Q) above, with Q510R, R532W counted along it

Compound: O=C(c1ccc(NS(=O)(=O)c2cccc3cccnc23)cc1)N1CCC(O)(c2ccccc2C(F)F)CC1
- AC50 [1]: < 0.1 µM
- AC50 [2]: < 100 nM
- AC50 [3]: < 100 nM
- AC50 [4]: < 100 nM

Compound: Nc1nc2cc(S(=O)(=O)Nc3ccc(C(=O)N4CCC(O)(c5ccccc5Cl)CC4)cc3)c(F)cc2s1
- AC50 [1]: > 10 µM
- AC50 [2]: > 10000 nM

Compound: CC(C)CC1(O)CCN(C(=O)c2ccc(NS(=O)(=O)c3cnc(O)c4cccnc34)cc2)CC1
- AC50 [1]: > 10 µM
- AC50 [2]: > 10000 nM

Compound: Cc1ccccc1CC1(O)CCN(C(=O)c2ccc(NS(=O)(=O)c3cccc4cccnc34)cc2)CC1
- AC50 [1]: < 0.1 µM
- AC50 [2]: < 100 nM
- AC50 [3]: < 100 nM
- AC50 [4]: < 100 nM

Compound: O=C1NCCC1CC1(O)CCN(C(=O)c2ccc(NS(=O)(=O)c3cccc4scnc34)cc2)CC1 (stereo not drawn)
- AC50 [1]: > 10 µM

Compound: O=C(c1ccc(NS(=O)(=O)c2cccc3scnc23)cc1)N1CCC(O)(/C=C/CC(F)(F)F)CC1
- AC50 [1]: < 0.1 µM
- AC50 [2]: < 100 nM
- AC50 [4]: < 100 nM

Compound: O=C(c1ccc(NS(=O)(=O)c2cccc3scnc23)cc1)N1CCC(O)(c2ncc(Cl)s2)CC1
- AC50 [1]: > 10 µM

Compound: CC1(O)CCC(C2(O)CCN(C(=O)c3ccc(NS(=O)(=O)c4cccc5scnc45)cc3)CC2)CC1 (stereo not drawn)
- AC50 [1]: ≥ 1.01 µM
- AC50 [2]: ≥ 1010 nM
- AC50 [4]: ≤ 1000 nM

Compound: CC(C)(C)CC1(O)CCN(C(=O)c2ccc(NS(=O)(=O)c3cccc4cccnc34)cc2)CC1
- AC50 [1]: < 0.1 µM
- AC50 [2]: < 100 nM
- AC50 [3]: < 100 nM
- AC50 [4]: < 100 nM

Compound: O=C(c1ccc(NS(=O)(=O)c2cccc3c(O)ncnc23)cc1)N1CCC(O)(/C=C/CC(F)(F)F)CC1
- AC50 [1]: < 0.1 µM
- AC50 [4]: < 100 nM

Compound: CC(C)CC1(O)CCN(C(=O)c2ccc(NS(=O)(=O)Cc3ccccn3)cc2)CC1
- AC50 [1]: > 10 µM
- AC50 [2]: > 10000 nM
- AC50 [4]: > 10000 nM

Compound: O=C(c1ccc(NS(=O)(=O)c2cccc3cccnc23)cc1)N1CCC(O)(c2ccccc2OC(F)(F)F)CC1
- AC50 [1]: < 0.1 µM
- AC50 [2]: < 100 nM
- AC50 [4]: < 100 nM

Compound: CC(CC1(O)CCN(C(=O)c2ccc(NS(=O)(=O)c3cccc4c(O)ncnc34)cc2)CC1)C(F)(F)F (stereo not drawn)
- AC50 [1]: < 0.1 µM
- AC50 [2]: < 100 nM
- AC50 [4]: < 100 nM

Compound: O=C(c1ccc(NS(=O)(=O)c2ccccc2Cl)cc1)N1CCC(O)(Cc2ccccc2)CC1
- AC50 [1]: ≤ 1 µM
- AC50 [2]: ≤ 1000 nM
- AC50 [4]: ≤ 1000 nM

Compound: CC(C)CC1(OP(=O)(O)O)CCN(C(=O)c2ccc(NS(=O)(=O)c3cccc4nccnc34)cc2)CC1
- AC50 [1]: > 10 µM

Compound: CCn1cc(CC2(O)CCN(C(=O)c3ccc(NS(=O)(=O)c4cccc5scnc45)cc3)CC2)cn1
- AC50 [1]: > 10 µM

Compound: O=C(c1ccc(NS(=O)(=O)c2cccc3cccnc23)cc1)N1CCC(O)(Cc2cccc(F)c2)CC1
- AC50 [1]: < 0.1 µM
- AC50 [2]: < 100 nM
- AC50 [3]: < 100 nM
- AC50 [4]: < 100 nM

Compound: O=C(c1ccc(NS(=O)(=O)c2cccc3cccnc23)cc1)N1CCC(O)(c2ccc(F)cc2Cl)CC1
- AC50 [1]: < 0.1 µM
- AC50 [2]: < 100 nM
- AC50 [3]: < 100 nM
- AC50 [4]: < 100 nM

Compound: O=C(c1ccc(NS(=O)(=O)c2cccc3cccnc23)nc1)N1CCC(O)(c2ccccc2)CC1
- AC50 [1]: > 10 µM

Compound: O=C(c1ccc(NS(=O)(=O)c2cccc3c2OC(F)(F)O3)cc1)N1CCC(O)(c2ccccc2Cl)CC1
- AC50 [1]: > 10 µM

Compound: O=C(c1ccc(NS(=O)(=O)c2cccc3cccnc23)cc1F)N1CCC(O)(Cc2ccccc2)CC1
- AC50 [1]: < 0.1 µM
- AC50 [2]: < 100 nM
- AC50 [3]: < 100 nM
- AC50 [4]: < 100 nM

Compound: O=C(c1ccc(NS(=O)(=O)c2cccc3[nH]cnc23)cc1)N1CCC(O)(c2ccccc2Cl)CC1
- AC50 [1]: > 10 µM
- AC50 [2]: ≥ 1010 nM
- AC50 [4]: ≥ 1010 nM

Compound: O=C(c1ccc(NS(=O)(=O)c2cccc3cccnc23)cc1)N1CCC(C(=O)O)(c2ccccc2)CC1
- AC50 [1]: > 10 µM
- AC50 [2]: > 10000 nM
- AC50 [4]: > 10000 nM

Compound: O=C(c1ccc(NS(=O)(=O)c2ccc(F)c3cccnc23)cc1)N1CCC(O)(Cc2ccccc2F)CC1
- AC50 [1]: < 0.1 µM
- AC50 [2]: < 100 nM
- AC50 [4]: < 100 nM

Compound: O=C(c1ccc(NS(=O)(=O)c2cccc(OC(F)(F)F)c2)cc1)N1CCC(O)(Cc2ccccc2)CC1
- AC50 [1]: > 10 µM

Compound: CC(C)CC1(O)CCN(C(=O)c2ccc(NS(=O)(=O)c3ccnc4scnc34)cc2)CC1
- AC50 [1]: > 10 µM
- AC50 [2]: > 10000 nM

Compound: CCn1cc(CC2(O)CCN(C(=O)c3ccc(NS(=O)(=O)c4cccc5nccnc45)cc3)CC2)cn1
- AC50 [1]: > 10 µM

Compound: Cn1ccc(CC2(O)CCN(C(=O)c3ccc(NS(=O)(=O)c4cccc5nccnc45)cc3)CC2)n1
- AC50 [1]: > 10 µM

Compound: O=C(c1ccc(NS(=O)(=O)c2cccc3snnc23)cc1)N1CCC(O)(c2ccccc2Cl)CC1
- AC50 [1]: > 10 µM

Compound: COc1nc(C(=O)N2CCC(O)(c3ccccc3)CC2)ccc1NS(=O)(=O)c1cccc2cccnc12
- AC50 [1]: > 10 µM

Compound: CC1(O)CCC(C2(O)CCN(C(=O)c3ccc(NS(=O)(=O)c4cccc5nccnc45)cc3)CC2)CC1 (stereo not drawn)
- AC50 [1]: ≤ 1 µM
- AC50 [2]: ≤ 1000 nM
- AC50 [4]: ≤ 1000 nM
